Measurements: patent US4965066A, “Intranasal administration of 3,3-disubstituted indolines” (E. I. Du Pont de Nemours and Company, priority 1989, dated 1990)

Experiment: in vivo
Conditions: rat
Method: Male Lewis rats weighing approximately 300 g were used. […] This dose was administered by gavage. The nasal dose of (1') was administered to rats after surgical isolation of the nasal cavity. The trachea was cannulated to allow free breathing, and a closed tube was inserted anteriorly through the esophagus to block the posterior part of the nasal cavity. The incisive ducts were closed with an adhesive to prevent drainage into the mouth. The dose was administered through the nares with a microliter syringe via polyethylene tubing. […] Serial blood samples (~0.5 ml) were collected into heparinized test tubes after cutting the tip of the tail. […] Aliquots of the acid were injected onto the HPLC. […] Du Pont) attached to a guard column packed with cyano packing. A liter of mobile phase contained […] of 0.1 M acetate buffer at pH 3.5, 480 ml acetontrile, 5 ml tetrahydrofuran, and 0.75 g sodium heptanesulfonate. […] Detection was by ultraviolet (uv) absorbance at 252 nm. The detection limit was 0.12 μg/ml plasma. […] Systemic bioavailability after oral and nasal doses was calculated for each rat as the ratio of AUC^oral or ^nasal /AUC^iv, using the average AUC^iv and correcting for the differences in dose. Values are expressed as percentage (%) of dose.

Tmax (1 mg/kg): ≤ 10 min | Bioavailability (F) (2 mg/kg): 100 % of Dose | AUC at 3 h (4 mg/kg): 1340 ± 140 ng·h/mL | bioavailability (4 mg/kg, Nasal Bioavailability (F)): 53 ± 5.5% | AUC at 3 h (iv, 2 mg/kg): 1260 ± 90 ng·h/mL | AUC at 3 h (po, 20 mg/kg): 1150 ± 240 ng·h/mL | bioavailability (po, 20 mg/kg, Oral Bioavailability (F)): 9.1 ± 1.9%
Structure (SMILES): O=C1N(c2ccccc2)c2ccccc2C1(Cc1ccncc1)Cc1ccncc1 [1']
